Blank lines part the entries; values can stand above or below the compound they belong to.
Key:
subtilisin = details: Keller et al, 1991; cited from earlier work
Savinase [1] = biological target: T1, Savinase (Lederbergia lenta, UniProt P29600); assay: Determination of Ki: inhibition of Savinase (SAAPFpNA substrate); type: biochemical; design: purchased Novo Nordisk A/S; details: 0.1M Tris-HCl pH 8.6, 25° C.
T1 sequence (P29600 1-269): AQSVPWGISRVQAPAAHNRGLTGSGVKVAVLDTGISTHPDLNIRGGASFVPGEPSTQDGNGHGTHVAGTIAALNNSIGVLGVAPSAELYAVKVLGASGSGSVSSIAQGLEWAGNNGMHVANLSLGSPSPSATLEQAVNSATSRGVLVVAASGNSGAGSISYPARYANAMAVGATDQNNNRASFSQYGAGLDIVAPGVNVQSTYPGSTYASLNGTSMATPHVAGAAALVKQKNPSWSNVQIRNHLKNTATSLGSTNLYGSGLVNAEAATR
Source text: b) Determination of Ki : The inhibition constant Ki may be determined by using standard methods, for reference see Keller et al, Biochem. Biophys. Res. Com. 176, 1991, pp.401-405; J. Bieth in Bayer-Symposium "Proteinase Inhibitors", pp. 463-469, Springer-Verlag, 1974 and Lone Kierstein Hansen in "Determination of Specific Activities of Selected Detergent Proteases using Protease Activity, Molecular Weights, Kinetic Parameters and Inhibition Kinetics", PhD-report, Novo Nordisk A/S and University of Copenhagen, 1991.
The inhibition constant Ki for the inhibition of Savinase™ (available from Novo Nordisk A/S) was determined using standard methods under the following conditions: […]
The initial rate of substrate hydrolysis was determined at nine substrate concentrations in the range of 0.01 to 2 mM using a Cobas Fara automated spectrophotometer. The kinetic parameters Vmax and Km were determined using ENZFITTER (a non-linear regression data analysis program).
kcat was calculated from the equation Vmax =kcat X [Eo ]. The concentration of active enzyme [Eo ] was determined by active site titration using tight-binding protein proteinase inhibitors. The inhibition constant Ki was calculated from plots of Km /kcat as a function of the concentration of inhibitor. The inhibitors were assumed to be 100% pure and the molar concentrations were determined using weighing numbers and molecular weights.

Savinase [2] = biological target: T1, Savinase; assay: Storage Stability Test in a Commercial Detergent (Omo Micro), Example 4; type: biochemical; design: purchased Novo Nordisk A/S; details: 1.33 mM stabilizer (boric acid 160 mM), 1% w/w Savinase (8 KNPU/g), 1% w/w Lipolase (100 KLU/g), 0, 7, 15, and 21 days at 40° C.
Experimental: An improvement factor is thus derived: [formula]
The inhibition effectiveness IFI of 4-formyl-phenyl-boronic acid was also found in a commercial detergent Omo Micro.
Omo Micro was bought in a Danish supermarket. The enzymes were inactivated at 90° C. (overnight).
The following dosages in the detergent were used:
4-Formyl-phenyl-boronic acid: 1.33 mM, or
Protease: 1% w/w Savinase (8 KNPU/g), and
Lipase: 1% w/w Lipolase (100 KLU/g).
Storage: 0, 7, 15, and 21 days at 40° C.

Savinase [3] = biological target: T1, Savinase; assay: Storage Stability Test in Liquid Detergent (Detergent base, US-type), Example 3; type: biochemical; design: purchased Novo Nordisk A/S; details: for Improvement Factor (IFI): relative to Boric Acid, US-type detergent, 1% w/w Savinase (14 KNPU/g), stabilizer 5 mmole/kg (boric acid 160 mmole/kg), 0, 3, 7 and 14 days at 30° C.
Experimental: (§1) a) Storage Stability Test in Liquid Detergent: Enzyme(s) and stabilizer are added to a liquid detergent formulation and stored at well defined conditions. The enzyme activity of each enzyme is determined as a function of time, e.g. after 0, 3, 7 and 14 days.
(§2) To calculate the inhibition efficiency from the storage stability date a reaction mechanism is proposed.
(§3) From these reactions three coupled differential equations are derived describing the deactivation of P, L and PI. The reaction rate constants are derived from storage stability data by the use of a parameter estimation method (Gauss-Newton with the Levenberg modification). The storage stability data give the concentration of (P+PI) and L as a function of time.
(§4) Reaction IV is excluded from the system to reduce the number of parameters thereby describing the stability of the inhibited enzyme by only one reaction rate constant (from equation V).
(§5) In all experiments there is a large surplus of inhibitor molecules compared to protease molecules, i.e. a constant concentration of inhibitor (corresponding to the added amount of inhibitor) is a reasonable assumption.
(§6) An improvement factor is thus derived: [formula] IFI measures the inhibition efficiency given by the inhibition constants KI from reaction III.
Phenyl boronic acid derivatives were also tested in storage stability tests in liquid detergents using the method described previously under the following conditions: […]

Savinase [4] = biological target: T1, Savinase; details: US-type detergent; 1% w/w Savinase (14 KNPU/g); 5 mmole/kg (boric acid 160 mmole/kg); 0, 2, 7 and 14 days at 30° C.
Experimental: as §1, §2, §3, §4, §5, §6

proteolytic enzymes = details: background statement; WO 92/19707 for aryl boronic acids; cited from earlier work

Compound: OB(O)c1cc(Cl)cc(Cl)c1 [3,5-dichlorophenylboronic acid]
capacity as subtilisin inhibitor (subtilisin): particularly effective

Compound: CB(O)O [methylboronic acid]
capacity as subtilisin inhibitor (subtilisin): poorest inhibitor

Compound: O=C(O)c1ccc(B(O)O)cc1 [4-Carboxybenzeneboronic acid]
IFI (Savinase [4]): 22

Compound: OB(O)O [Boric acid]
inhibition of proteolytic enzymes (proteolytic enzymes): reversibly inhibit proteolytic enzymes

Second part, the compound after the results:

Ki (Savinase [1]): 300 µM | inhibition effectiveness IFI (Savinase [2]): 2500 | storage stability properties versus 2-formyl-phenyl-boronic acid (Savinase [3]; calculated on molar basis): at least 25 times better | storage stability properties versus 3-formyl-phenyl-boronic acid (Savinase [3]; calculated on molar basis): at least four times better | storage stability properties versus acetamidophenyl boronic acid (Savinase [3]; calculated on molar basis): at least three times better | Improvement Factor (IFI) (Savinase [3]): 1000
Compound: O=Cc1ccc(B(O)O)cc1 [4-formyl-phenyl-boronic acid, 4-Formyl-phenyl-boronic acid]

Improvement Factor (IFI) (Savinase [3]): 230
Compound: O=Cc1cccc(B(O)O)c1 [3-formyl-phenyl-boronic acid]

Ki (Savinase [1]): 1000 µM | Improvement Factor (IFI) (Savinase [3]): 300
Compound: CC(=O)Nc1cccc(B(O)O)c1 [acetamidophenyl boronic acid]

Improvement Factor (IFI) (Savinase [3]): 36
Compound: O=Cc1ccccc1B(O)O [2-formyl-phenyl-boronic acid]
